How the values were obtained:
[1] = specific extinction E^11 (1% solution, 1 cm optical path); format: physicochemical; conditions: at 328 nm; solution containing 1% of the product, optical path of 1 cm
From the text: The efficacy of UV absorbers is characterised by the parameter E^11 (or E11), which corresponds to the extinction value measured at the maximum absorption wavelength of a solution containing 1% of the product in question, measured with an optical path of 1 cm. Such extinction is called “specific extinction”.

[2] = Solubility Test in emollients (cosmetic solvents); format: physicochemical
Experimental: The solubility of the sunscreens obtained in example 2 and (comparative) example 3 were evaluated in various emollients commonly used in suncare and daily skincare products: C12-15 alkyl benzoate, dibutyl adipate, caprylic/capric triglyceride and ethylhexyl salicylate.

[3] = in Caprylic/Capric Triglyceride

Compound	E^11 extinction [1]	solubility ([2]; in C12-15 Alkyl Benzoate) [% w/w %]	solubility [2, 3] [% w/w %]	solubility ([2]; in Dibutyl Adipate) [% w/w %]	solubility ([2]; in Ethylhexyl Salicylate) [% w/w %]
CCCCC(CC)COC(=O)c1ccc(Nc2nc(Nc3ccc(-c4nc5cc(C(C)(C)CC)ccc5o4)cc3)nc(Nc3ccc(-c4nc5cc(C(C)(C)CC)ccc5o4)cc3)n2)cc1 (stereo not shown) [Example 2]	1431	15	15	20	25
CCCCC(CC)COC(=O)c1ccc(Nc2nc(Nc3ccc(-c4nc5cc(C(C)(C)C)ccc5o4)cc3)nc(Nc3ccc(-c4nc5cc(C(C)(C)C)ccc5o4)cc3)n2)cc1 (stereo not shown) [Example 3]	1395	5	<5	5	10
